The supplement of paper PMC10307832

How the values were obtained:
Experiment in all cases: relative viability (nuclei count vs DMSO), 5 days (fraction); higher = more cells survive
[1] = compound: C1/C(=C\C2=CC=CS2)/C(=O)/C(=C/C3=CC=CS3)/C1 + CS(=O)(=O)N1CCN(Cc2cc3nc(-c4cccc5[nH]ncc45)nc(N4CCOCC4)c3s2)CC1 [Pictilisib] (partner 1 µM)
Method in brief: (§1)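 Medians of duplicate plates are given as relative viability. That measure is the nuclei count in treated wells divided by the count in vehicle wells. Counts were taken on 4× images of lung cancer cell lines in 1536-well plates, 5 days after pin-tool dosing the day after seeding with one drug alone or a fixed anchor-drug dose plus five library-drug doses (not always all listed) in √10 steps.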

[2] = compound: C1/C(=C\C2=CC=CS2)/C(=O)/C(=C/C3=CC=CS3)/C1 + Nc1ncn([C@H]2C[C@H](O)[C@@H](CO)O2)c(=O)n1 [Decitabine] (partner 2 µM)
Method in brief: as §1

TPCA-1 + Pictilisib = compound: C1=CC(=CC=C1C2=CC(=C(S2)NC(=O)N)C(=O)N)F [TPCA-1] + CS(=O)(=O)N1CCN(Cc2cc3nc(-c4cccc5[nH]ncc45)nc(N4CCOCC4)c3s2)CC1 [Pictilisib] (partner 1 µM)
Method in brief: as §1

[3] = compound: C[C@]12O[C@H](C[C@]1(O)CO)n1c3ccccc3c3c4c(c5c6ccccc6n2c5c31)CNC4=O [Lestaurtinib] + CS(=O)(=O)N1CCN(Cc2cc3nc(-c4cccc5[nH]ncc45)nc(N4CCOCC4)c3s2)CC1 [Pictilisib] (partner 1 µM)
Method in brief: as §1

HCC-15
relative viability ([1]; first compound 0.2 µM): 0.776 | relative viability ([1]; first compound 0.6325 µM): 0.748 | relative viability ([1]; first compound 2 µM): 0.843 | relative viability ([1]; first compound 6.325 µM): 0.642 | relative viability ([1]; first compound 20 µM): 0.758 | relative viability ([2]; first compound 0.2 µM): 0.677 | relative viability ([2]; first compound 0.6325 µM): 0.688 | relative viability ([2]; first compound 2 µM): 0.661 | relative viability ([2]; first compound 6.325 µM): 0.619 | relative viability ([2]; first compound 20 µM): 0.609 | relative viability (TPCA-1 + Pictilisib; first compound 0.04 µM): 0.901 | relative viability (TPCA-1 + Pictilisib; first compound 0.1265 µM): 0.559 | relative viability (TPCA-1 + Pictilisib; first compound 0.4 µM): 0.766 | relative viability (TPCA-1 + Pictilisib; first compound 1.265 µM): 0.864 | relative viability (TPCA-1 + Pictilisib; first compound 4 µM): 0.275 | relative viability ([3]; first compound 0.005 µM): 0.854 | relative viability ([3]; first compound 0.01581 µM): 0.872 | relative viability ([3]; first compound 0.05 µM): 0.609 | relative viability ([3]; first compound 0.1581 µM): 0.477 | relative viability ([3]; first compound 0.5 µM): 0.176

NCI-H727
relative viability ([1]; first compound 0.2 µM): 0.328 | relative viability ([1]; first compound 0.6325 µM): 0.419 | relative viability ([1]; first compound 2 µM): 0.609 | relative viability ([1]; first compound 6.325 µM): 0.21 | relative viability ([1]; first compound 20 µM): 0.455 | relative viability ([2]; first compound 0.2 µM): 0.939 | relative viability ([2]; first compound 0.6325 µM): 0.976 | relative viability ([2]; first compound 2 µM): 1.2 | relative viability ([2]; first compound 20 µM): 0.981 | relative viability (TPCA-1 + Pictilisib; first compound 0.04 µM): 0.389 | relative viability (TPCA-1 + Pictilisib; first compound 0.1265 µM): 0.249 | relative viability (TPCA-1 + Pictilisib; first compound 0.4 µM): 0.35 | relative viability (TPCA-1 + Pictilisib; first compound 1.265 µM): 0.28 | relative viability (TPCA-1 + Pictilisib; first compound 4 µM): 0.222 | relative viability ([3]; first compound 0.005 µM): 0.396 | relative viability ([3]; first compound 0.01581 µM): 0.566 | relative viability ([3]; first compound 0.05 µM): 0.278 | relative viability ([3]; first compound 0.1581 µM): 0.409 | relative viability ([3]; first compound 0.5 µM): 0.229

HOP-62
relative viability ([1]; first compound 0.2 µM): 0.781 | relative viability ([1]; first compound 0.6325 µM): 0.657 | relative viability ([1]; first compound 2 µM): 0.824 | relative viability ([1]; first compound 6.325 µM): 0.704 | relative viability ([1]; first compound 20 µM): 0.889 | relative viability ([2]; first compound 0.2 µM): 0.211 | relative viability ([2]; first compound 0.6325 µM): 0.202 | relative viability ([2]; first compound 2 µM): 0.199 | relative viability ([2]; first compound 6.325 µM): 0.221 | relative viability ([2]; first compound 20 µM): 0.202 | relative viability (TPCA-1 + Pictilisib; first compound 0.04 µM): 0.964 | relative viability (TPCA-1 + Pictilisib; first compound 0.1265 µM): 0.57 | relative viability (TPCA-1 + Pictilisib; first compound 0.4 µM): 0.734 | relative viability (TPCA-1 + Pictilisib; first compound 1.265 µM): 0.123 | relative viability (TPCA-1 + Pictilisib; first compound 4 µM): 0.186 | relative viability ([3]; first compound 0.005 µM): 0.742 | relative viability ([3]; first compound 0.01581 µM): 0.693 | relative viability ([3]; first compound 0.05 µM): 0.642 | relative viability ([3]; first compound 0.1581 µM): 0.604 | relative viability ([3]; first compound 0.5 µM): 0.427

NCI-H3122
relative viability ([1]; first compound 0.2 µM): 0.681 | relative viability ([1]; first compound 0.6325 µM): 0.579 | relative viability ([1]; first compound 2 µM): 0.718 | relative viability ([1]; first compound 6.325 µM): 0.466 | relative viability ([1]; first compound 20 µM): 0.642 | relative viability ([2]; first compound 0.2 µM): 0.509 | relative viability ([2]; first compound 0.6325 µM): 0.375 | relative viability ([2]; first compound 2 µM): 0.472 | relative viability ([2]; first compound 6.325 µM): 0.381 | relative viability ([2]; first compound 20 µM): 0.463 | relative viability (TPCA-1 + Pictilisib; first compound 0.04 µM): 0.725 | relative viability (TPCA-1 + Pictilisib; first compound 0.1265 µM): 0.511 | relative viability (TPCA-1 + Pictilisib; first compound 0.4 µM): 0.603 | relative viability (TPCA-1 + Pictilisib; first compound 1.265 µM): 0.612 | relative viability (TPCA-1 + Pictilisib; first compound 4 µM): 0.595 | relative viability ([3]; first compound 0.005 µM): 0.671 | relative viability ([3]; first compound 0.01581 µM): 0.798 | relative viability ([3]; first compound 0.05 µM): 0.628 | relative viability ([3]; first compound 0.1581 µM): 0.45 | relative viability ([3]; first compound 0.5 µM): 0.423

NCI-H1395
relative viability ([1]; first compound 0.2 µM): 0.618 | relative viability ([1]; first compound 0.6325 µM): 0.73 | relative viability ([1]; first compound 2 µM): 0.67 | relative viability ([1]; first compound 6.325 µM): 0.448 | relative viability ([1]; first compound 20 µM): 0.581 | relative viability ([2]; first compound 0.2 µM): 0.729 | relative viability ([2]; first compound 0.6325 µM): 0.777 | relative viability ([2]; first compound 2 µM): 0.754 | relative viability ([2]; first compound 6.325 µM): 0.679 | relative viability ([2]; first compound 20 µM): 0.729 | relative viability (TPCA-1 + Pictilisib; first compound 0.04 µM): 0.694 | relative viability (TPCA-1 + Pictilisib; first compound 0.1265 µM): 0.66 | relative viability (TPCA-1 + Pictilisib; first compound 0.4 µM): 0.68 | relative viability (TPCA-1 + Pictilisib; first compound 1.265 µM): 0.505 | relative viability (TPCA-1 + Pictilisib; first compound 4 µM): 0.607 | relative viability ([3]; first compound 0.005 µM): 0.597 | relative viability ([3]; first compound 0.01581 µM): 0.542 | relative viability ([3]; first compound 0.05 µM): 0.536 | relative viability ([3]; first compound 0.1581 µM): 0.463 | relative viability ([3]; first compound 0.5 µM): 0.405

NCI-H647
relative viability ([1]; first compound 0.2 µM): 0.439 | relative viability ([1]; first compound 0.6325 µM): 0.329 | relative viability ([1]; first compound 2 µM): 0.563 | relative viability ([1]; first compound 6.325 µM): 0.382 | relative viability ([1]; first compound 20 µM): 0.379 | relative viability ([2]; first compound 0.2 µM): 0.43 | relative viability ([2]; first compound 0.6325 µM): 0.424 | relative viability ([2]; first compound 2 µM): 0.32 | relative viability ([2]; first compound 6.325 µM): 0.441 | relative viability ([2]; first compound 20 µM): 0.357 | relative viability (TPCA-1 + Pictilisib; first compound 0.04 µM): 0.494 | relative viability (TPCA-1 + Pictilisib; first compound 0.1265 µM): 0.283 | relative viability (TPCA-1 + Pictilisib; first compound 0.4 µM): 0.42 | relative viability (TPCA-1 + Pictilisib; first compound 1.265 µM): 0.236 | relative viability (TPCA-1 + Pictilisib; first compound 4 µM): 0.217 | relative viability ([3]; first compound 0.005 µM): 0.413 | relative viability ([3]; first compound 0.01581 µM): 0.289 | relative viability ([3]; first compound 0.05 µM): 0.197 | relative viability ([3]; first compound 0.1581 µM): 0.193 | relative viability ([3]; first compound 0.5 µM): 0.105

NCI-H650
relative viability ([1]; first compound 0.2 µM): 0.998 | relative viability ([1]; first compound 0.6325 µM): 0.801 | relative viability ([1]; first compound 2 µM): 0.834 | relative viability ([1]; first compound 6.325 µM): 0.821 | relative viability ([1]; first compound 20 µM): 0.938 | relative viability ([2]; first compound 0.2 µM): 0.311 | relative viability ([2]; first compound 0.6325 µM): 0.293 | relative viability ([2]; first compound 2 µM): 0.293 | relative viability ([2]; first compound 6.325 µM): 0.307 | relative viability ([2]; first compound 20 µM): 0.306 | relative viability (TPCA-1 + Pictilisib; first compound 0.04 µM): 0.928 | relative viability (TPCA-1 + Pictilisib; first compound 0.1265 µM): 0.864 | relative viability (TPCA-1 + Pictilisib; first compound 0.4 µM): 1.03 | relative viability (TPCA-1 + Pictilisib; first compound 1.265 µM): 0.538 | relative viability (TPCA-1 + Pictilisib; first compound 4 µM): 0.787 | relative viability ([3]; first compound 0.005 µM): 0.816 | relative viability ([3]; first compound 0.01581 µM): 0.818 | relative viability ([3]; first compound 0.05 µM): 0.63 | relative viability ([3]; first compound 0.1581 µM): 0.399 | relative viability ([3]; first compound 0.5 µM): 0.332

EKVX
relative viability ([1]; first compound 0.2 µM): 0.44 | relative viability ([1]; first compound 0.6325 µM): 0.431 | relative viability ([1]; first compound 2 µM): 0.415 | relative viability ([1]; first compound 6.325 µM): 0.34 | relative viability ([1]; first compound 20 µM): 0.467 | relative viability ([2]; first compound 0.2 µM): 0.359 | relative viability ([2]; first compound 0.6325 µM): 0.267 | relative viability ([2]; first compound 2 µM): 0.406 | relative viability ([2]; first compound 20 µM): 0.452 | relative viability (TPCA-1 + Pictilisib; first compound 0.04 µM): 0.405 | relative viability (TPCA-1 + Pictilisib; first compound 0.1265 µM): 0.343 | relative viability (TPCA-1 + Pictilisib; first compound 0.4 µM): 0.512 | relative viability (TPCA-1 + Pictilisib; first compound 1.265 µM): 0.374 | relative viability (TPCA-1 + Pictilisib; first compound 4 µM): 0.43 | relative viability ([3]; first compound 0.005 µM): 0.518 | relative viability ([3]; first compound 0.01581 µM): 0.461 | relative viability ([3]; first compound 0.05 µM): 0.442 | relative viability ([3]; first compound 0.1581 µM): 0.571 | relative viability ([3]; first compound 0.5 µM): 0.387
